Data on eight molecules can be found in ChEMBL document CHEMBL5113481, “Design, synthesis and biological evaluation of quinoline-2-carbonitrile-based hydroxamic acids as dual tubulin polymerization and histone deacetylases inhibitors” (Eur J Med Chem, 2022).

The subject of one data set is HCT-116. Put plainly: Antiproliferative activity against human HCT-116 cells after 72 hrs by CellTiter Glo assay. In kind it is functional, cell-based. To be noted: Homo sapiens, HCT-116, 72 h. A general note: In ATP-based viability assays light output follows the ATP content of the culture.
One may read the IC50 as the concentration at which inhibition is half-maximal. Molecule `C=C(c1ccc(OC)c(/C=C/C(=O)NO)c1)c1cc(OC)c(OC)c(OC)c1` came in with an IC50 of 1.5 nM.

Still in this data set, the particulars now being: Homo sapiens, HCT-116; time 72 hrs.
In general, GI50 refers to the concentration that inhibits growth by half. A low value points to greater sensitivity of the cells. `COc1ccc(N(C)c2nc(C#N)nc3ccccc23)cc1/C=C/C(=O)NO` had a GI50 of 1.5 nM.
Same read-out and setting: as for `COc1ccc(N(C)c2cc(C#N)nc3ccccc23)cc1I`, the figure is 24.6 nM; as for `COc1ccc(N(C)c2cc(C#N)nc3ccccc23)cc1OCCCC(=O)NO`, 381 nM; as for `COc1ccc(N(C)c2cc(C#N)nc3ccccc23)cc1OCC(=O)NO`, 64.5 nM.
The same measure, in the same setting: as for `COc1ccc(N(C)c2cc(C#N)nc3ccccc23)cc1C#CCCC(=O)NO`, the figure is 25.2 nM; as for `C=C(c1ccc(OC)c(O)c1)c1cc(OC)c(OC)c(OC)c1`, 2.2 nM.
The same measure, in the same setting: as for `COc1ccc(N(C)c2cc(C#N)nc3ccccc23)cc1/C=C/CCC(=O)NO`, the figure is 34.4 nM.

Another data set relates to K562. Put plainly: Antiproliferative activity against human K562 cells after 72 hrs by CellTiter Glo assay. In kind it is functional, cell-based. To be noted: K562, 72 h.
Take `C=C(c1ccc(OC)c(/C=C/C(=O)NO)c1)c1cc(OC)c(OC)c(OC)c1`: the 50% inhibitory concentration (IC50) was determined as 1.6 nM.

A further data set deals with HT-29. Put plainly: Antiproliferative activity against human HT-29 cells after 72 hrs by CellTiter Glo assay. It counts as functional, cell-based. To be noted: HT-29, 72 h.
Molecule `C=C(c1ccc(OC)c(/C=C/C(=O)NO)c1)c1cc(OC)c(OC)c(OC)c1` registered an IC50 of 2 nM.

For a further data set, the system named is SK-OV-3. Put plainly: Antiproliferative activity against human SK-OV-3 cells after 72 hrs by CellTiter Glo assay. In kind it is functional, cell-based. To be noted: SK-OV-3, 72 h.
Molecule `C=C(c1ccc(OC)c(O)c1)c1cc(OC)c(OC)c(OC)c1` showed an IC50 of 5 nM.
On the same count and under the same terms, for `C=C(c1ccc(OC)c(/C=C/C(=O)NO)c1)c1cc(OC)c(OC)c(OC)c1` the value was 4 nM.

Test system in the next data set: not listed separately
The data set can be described thus: Metabolic stability in rat liver microsomes assessed as half-life measured upto 6 hrs in presence of NADPH generating system by HPLC-MS/MS analysis. In kind it is ADME, Microsome.
Details: not given
Broadly, the half-life is the time in which the quantity being followed falls by half. For `C=C(c1ccc(OC)c(O)c1)c1cc(OC)c(OC)c(OC)c1`, the half-life was 4.24 h.
Same read-out and setting: for `C=C(c1ccc(OC)c(/C=C/C(=O)NO)c1)c1cc(OC)c(OC)c(OC)c1` the value was 4.42 h.

Another data set concerns A549. The data set can be described thus: Antiproliferative activity against human A549 cells after 72 hrs by CellTiter Glo assay. It counts as functional, cell-based. To be noted: A549, 72 h.
Molecule `C=C(c1ccc(OC)c(O)c1)c1cc(OC)c(OC)c(OC)c1` gave an IC50 of 12 nM.
On the same count and under the same terms, as for `C=C(c1ccc(OC)c(/C=C/C(=O)NO)c1)c1cc(OC)c(OC)c(OC)c1`, the figure is 2 nM.

A further data set relates to MIA PaCa-2. The data set can be described thus: Antiproliferative activity against human MIA PaCa-2 cells after 72 hrs by CellTiter Glo assay. It counts as functional, cell-based. To be noted: MIA PaCa-2, 72 h.
Molecule `C=C(c1ccc(OC)c(/C=C/C(=O)NO)c1)c1cc(OC)c(OC)c(OC)c1` displayed an IC50 of 6 nM.

The subject of a further data set is K562. Put plainly: Antiproliferative activity against imatinib-resistant human K562 cells over expressing MDR1 after 72 hrs by CellTiter Glo assay. It counts as functional, cell-based. To be noted: K562, 72 h.
`C=C(c1ccc(OC)c(O)c1)c1cc(OC)c(OC)c(OC)c1` displayed a half-maximal inhibitory concentration (IC50) of 3 nM.
The molecule `C=C(c1ccc(OC)c(/C=C/C(=O)NO)c1)c1cc(OC)c(OC)c(OC)c1` showed an IC50 of 1.4 nM.

The next data set addresses Tubulin. Put plainly: Inhibition of tubulin polymerization in human HeLa cells assessed as microtubule network polymerization after 30 mins by immunofluorescence analysis. It counts as cell-based.
Details: not given
Turning to `C=C(c1ccc(OC)c(O)c1)c1cc(OC)c(OC)c(OC)c1`, the IC50 amounted to 6 nM.

The next data set relates to MDA-MB-231. Put plainly: Antiproliferative activity against human MDA-MB-231 cells after 72 hrs by CellTiter Glo assay. It counts as functional, cell-based. To be noted: MDA-MB-231, 72 h.
The molecule `C=C(c1ccc(OC)c(/C=C/C(=O)NO)c1)c1cc(OC)c(OC)c(OC)c1` showed an IC50 of 4.6 nM.

Test system in the next data set: not listed separately
The data set can be described thus: Metabolic stability in rat liver microsomes assessed as intrinsic clearance per mg protein measured upto 6 hrs in presence of NADPH generating system by HPLC-MS/MS analysis. To be noted: read-out: CLH. It counts as ADME, Microsome.
On to `C=C(c1ccc(OC)c(O)c1)c1cc(OC)c(OC)c(OC)c1`, for which the microsomal CLint amounted to 2.73 µL/min/mg.
With `C=C(c1ccc(OC)c(/C=C/C(=O)NO)c1)c1cc(OC)c(OC)c(OC)c1`, the microsomal CLint is 2.57 µL/min/mg.

The subject of the next data set is NCI-N87. The data set can be described thus: Antiproliferative activity against human NCI-N87 cells after 72 hrs by CellTiter Glo assay. In kind it is functional, cell-based. The settings on record: NCI-N87, 72 h.
Molecule `C=C(c1ccc(OC)c(O)c1)c1cc(OC)c(OC)c(OC)c1` displayed an IC50 of 14 nM.
Still for that read-out and setting: as for `C=C(c1ccc(OC)c(/C=C/C(=O)NO)c1)c1cc(OC)c(OC)c(OC)c1`, the figure is 3.2 nM.

Test system in another data set: not listed separately
Put plainly: Metabolic stability in human liver microsomes assessed as half-life measured upto 6 hrs in presence of NADPH generating system by HPLC-MS/MS analysis.
Details: not given
In kind it is ADME, Microsome. (In general: Microsomes from liver hold many membrane-bound enzymes, among them those of drug oxidation.)
For the molecule `C=C(c1ccc(OC)c(O)c1)c1cc(OC)c(OC)c(OC)c1`, the half-life was 12 h.
The same measure, in the same setting: as for `C=C(c1ccc(OC)c(/C=C/C(=O)NO)c1)c1cc(OC)c(OC)c(OC)c1`, the figure is 14 h.

Test system in a further data set: not listed separately
The data set can be described thus: Metabolic stability in human liver microsomes assessed as intrinsic clearance per mg protein measured upto 6 hrs in presence of NADPH generating system by HPLC-MS/MS analysis. In kind it is ADME, Microsome. To be noted: read-out: CLH.
For `C=C(c1ccc(OC)c(O)c1)c1cc(OC)c(OC)c(OC)c1`, the microsomal CLint was 0.96 µL/min/mg.
Regarding `C=C(c1ccc(OC)c(/C=C/C(=O)NO)c1)c1cc(OC)c(OC)c(OC)c1`, the microsomal CLint stood at 0.83 µL/min/mg.

Another data set deals with MCF7. Put plainly: Antiproliferative activity against human MCF7 cells after 72 hrs by CellTiter Glo assay. It counts as functional, cell-based. To be noted: MCF7, 72 h.
With `C=C(c1ccc(OC)c(/C=C/C(=O)NO)c1)c1cc(OC)c(OC)c(OC)c1`, half-maximal inhibition (IC50) was put at 2.2 nM.
